Source: patent US6358999B2, “Use of zinc tranexamate in the treatment of diabetes” (Hamari Chemicals, LTD, priority 2000, dated 2002)

How the values were obtained:
[1] = 1,200 mg/kg orally administered to mice; cited from earlier work
[2] = tested on: intestinal α-glucosidase; test: Inhibition of intestinal α-glucosidase activity of streptozocin-induced diabetic mouse; type: biochemical; conditions: for Glucose (glucose production from maltose) / Glucose (glucose production from sucrose): diabetic mouse; for Glucose (glucose production from maltose): substrate maltose; for Glucose (glucose production from sucrose): substrate sucrose
Description: (§1) Intestinal tract enucleated from a normal mouse was homogenized by the conventional method after removing membrane mucosa. As a substrate, sucrose, starch, maltose or isomaltose was used. The homogenate was incubated with the substrate in the presence of a test compound (Y-4 or zinc chloride) at 37° C. for 30 minutes. The reaction mixture was centrifuged and the glucose concentration in the resulting supernatant was assayed. The glucose assay was conducted calorimetrically by adding a chromogenic reagent (0.47 mol/l of orthotoluidine, 16 mol/l of acetic acid, 10 mmol/l of boric acid) to the supernatant, heating the mixture in a boiling water bath for 8 minutes and measuring the absorbance at 635 nm. α-Glucosidase activity expressed in terms of glucose concentration/mg protein was calculated.
Example 5 was repeated using intestinal tract enucleated from a diabetic mouse induced by the treatment with streptozocin instead of intestinal tract enucleated from a normal mouse to determine the inhibitory effect of Y-4 on α-glycosidase activity. The intestinal α-glucosidase activity was higher in streptozocin-induced diabetic mouse than in normal mouse. […] The inhibitory effect of Y-4 was more remarkable in the diabetic mouse than in normal mouse.

[3] = Improvement of insulin resistance in Wistar fatty rats with type II diabetes (glucose loading after 8 weeks); type: in vivo; conditions: 150 mg/kg daily p.o. 8 weeks, after glucose 2.5 g/kg
Description: Y-4 was orally administered to male Wistar fatty rats (WFR) having tyep II diabetes with obesity and hyperlipidemia at an average daily dose of 150 mg/kg for consecutive 8 weeks. Eight weeks after the initiation of administration, the rats were fasted for 20 hours and then given oral administration of 2.5 g/kg/rat of glucose. Blood samples were collected from the tail vein at 30, 60, 120 and 180 minutes after the administration of glucose for assaying blood sugar and insulin levels. The results are shown in FIG. 3 and FIG. 4, respsectively.

[4] = Suppressive effect on elevation of blood sugar level after sucrose loading in mice; type: in vivo
Description: Each group consisting of five mice was fasted for 17-24 hours and then Y-4 was orally administered at varying doses.
Mice were orally given 1 g/kg body weight of sucrose 30 minutes after the administration of Y-4 or 2 g/kg body weight of sucrose 2 hours after the administration of Y-4. As in the preceding example, blood samples were collected from the tail end of mice at different time intervals and assayed for blood sugar levels.

[5] = Blood sugar and insulin levels in streptozocin-induced diabetic mice after sucrose loading; type: in vivo; conditions: STZ diabetic mice; for Blood sugar level: 200 mg/kg p.o. 30 minutes before sucrose 2 g/kg
Description: Experimental diabetes was induced in mice by treating the mice with streptozocin (STZ) (100 mg/kg/day i.p. for two days). After fasting for 17-24 hours, the mice were orally given Y-4 at varying doses 30 minutes before loading 2 g/kg of sucrose. After sucrose loading, blood samples were collected and assayed for blood sugar levels at different time intervals as in the preceding examples.
Similar to the above experiments, Y-4 was orally administered to the mice having experimental diabetes at a dose of 100 mg/kg 30 minutes before loading of 2 g of sucrose. Blood sugar and insulin levels in blood samples collected 30 minutes after sugar loading are shown in FIG. 1 and FIG. 2, respectively.

[6] = Suppressive effect on elevation of blood sugar level after glucose loading in mice; type: in vivo
Description: Each group consisting of five mice was fasted for 17-24 hours and then Y-4 was orally administered at varying doses. After 30 minutes, mice were given glucose orally at a dose of 1 g/kg body weight. Blood samples were collected from the tail end of mice at different time intervals and assayed for blood sugar levels using GLUTEST™ sensor available from Matsushita Kotobuki Electronic Industry Company.

[7] = tested on: intestinal α-glucosidase; test: Inhibition of intestinal α-glucosidase activity of normal mouse (intestinal homogenate, glucose production); type: biochemical; conditions: for Glucose (glucose production from isomaltose): substrate isomaltose; for Glucose (glucose production from isomaltose) / Glucose (glucose production from maltose) / Glucose (glucose production from sucrose): 37° C., 30 minutes; for Glucose (glucose production from maltose): substrate maltose; for Glucose (glucose production from sucrose): substrate sucrose
Description: as §1

[8] = 100 mg/kg p.o. 30 minutes before sucrose, 30 minutes after sugar loading

SMILES: NC[C@H]1CC[C@H](C(=O)[O-])CC1.NC[C@H]1CC[C@H](C(=O)[O-])CC1.O.[Zn+2] [Y-4, zinc tranexamate monohydrate]
- Acute toxicity (death) [1]: no death
- Glucose (glucose production from maltose) ([2]; inhibitor 5 mM): 23.060 ± 1.129 mg/mg protein
- Glucose (glucose production from maltose) ([2]; inhibitor 10 mM): 18.569 ± 1.617 mg/mg protein
- Glucose (glucose production from maltose) ([2]; inhibitor 30 mM): 15.113 ± 0.093 mg/mg protein
- Glucose (glucose production from maltose) ([2]; inhibitor 50 mM): 12.793 ± 0.337 mg/mg protein
- Glucose (glucose production from sucrose) ([2]; inhibitor 5 mM): 10.128 ± 1.137 mg/mg protein
- Glucose (glucose production from sucrose) ([2]; inhibitor 10 mM): 5.312 ± 1.113 mg/mg protein
- Glucose (glucose production from sucrose) ([2]; inhibitor 30 mM): 3.146 ± 0.157 mg/mg protein
- Glucose (glucose production from sucrose) ([2]; inhibitor 50 mM): 2.251 ± 0.327 mg/mg protein
- Inhibition of intestinal α-glucosidase, all substrates ([2]; streptozocin-induced diabetic mouse): remarkably inhibited
- Blood sugar level (FIG. 3) [3]: significantly controlled
- Insulin level (FIG. 4) [3]: normalized
- Blood sugar level ([4]; 50 mg/kg p.o. 30 minutes before sucrose 1 g/kg, 20 min.): 71.0 ± 5.9 mg/dL
- Blood sugar level ([4]; 50 mg/kg p.o. 30 minutes before sucrose 1 g/kg, 40 min.): 90.8 ± 10.0 mg/dL
- Blood sugar level ([4]; 50 mg/kg p.o. 30 minutes before sucrose 1 g/kg, 60 min.): 76.6 ± 9.9 mg/dL
- Blood sugar level ([4]; 50 mg/kg p.o. 30 minutes before sucrose 1 g/kg, 90 min.): 68.0 ± 8.1 mg/dL
- Elevation of blood sugar level after sucrose loading ([4]; 100 mg/kg and 200 mg/kg 30 minutes before sucrose loading, up to 90 minutes): significant suppressive effect
- Blood sugar level ([4]; 100 mg/kg p.o. 30 minutes before sucrose 1 g/kg, 20 min.): 50.8 ± 2.4 mg/dL
- Blood sugar level ([4]; 100 mg/kg p.o. 30 minutes before sucrose 1 g/kg, 40 min.): 59.3 ± 2.4 mg/dL
- Blood sugar level ([4]; 100 mg/kg p.o. 30 minutes before sucrose 1 g/kg, 60 min.): 72.9 ± 2.6 mg/dL
- Blood sugar level ([4]; 100 mg/kg p.o. 30 minutes before sucrose 1 g/kg, 90 min.): 60.6 ± 2.3 mg/dL
- Blood sugar level ([4]; 200 mg/kg p.o. 30 minutes before sucrose 1 g/kg, 20 min.): 40.4 ± 0.4 mg/dL
- Blood sugar level ([4]; 200 mg/kg p.o. 30 minutes before sucrose 1 g/kg, 40 min.): 53.2 ± 7.5 mg/dL
- Blood sugar level ([4]; 200 mg/kg p.o. 30 minutes before sucrose 1 g/kg, 60 min.): 58.2 ± 8.7 mg/dL
- Blood sugar level ([4]; 200 mg/kg p.o. 30 minutes before sucrose 1 g/kg, 90 min.): 57.6 ± 3.2 mg/dL
- Blood sugar level ([4]; 200 mg/kg p.o. 2 hours before sucrose 2 g/kg, 20 min.): 66.2 ± 6.3 mg/dL
- Blood sugar level ([4]; 200 mg/kg p.o. 2 hours before sucrose 2 g/kg, 40 min.): 84.6 ± 8.9 mg/dL
- Blood sugar level ([4]; 200 mg/kg p.o. 2 hours before sucrose 2 g/kg, 60 min.): 94.0 ± 18.0 mg/dL
- Blood sugar level ([4]; 200 mg/kg p.o. 2 hours before sucrose 2 g/kg, 90 min.): 94.4 ± 17.2 mg/dL
- Blood sugar level (FIG. 1) [5, 8]: suppressed the elevation of blood sugar level almost completely
- Insulin level (FIG. 2) [5, 8]: not significantly different from the control value of normal mice group
- Blood sugar level ([5]; 20 min.): 96.8 mg/dL
- Blood sugar level ([5]; 40 min.): 134.2 mg/dL
- Blood sugar level ([5]; 60 min.): 138.2 mg/dL
- Blood sugar level ([5]; 90 min.): 137.0 mg/dL
- Blood sugar level ([5]; 180 min.): 131.8 mg/dL
- Elevation of blood sugar level after sucrose loading in diabetic mice ([5]; 30 minutes before sucrose loading, up to 3 hours): remarkably suppressed the elevation of blood sugar level
- Blood sugar level ([6]; 50 mg/kg p.o. 30 min before glucose 1 g/kg, 20 min.): 96.0 ± 3.5 mg/dL
- Blood sugar level ([6]; 50 mg/kg p.o. 30 min before glucose 1 g/kg, 40 min.): 104.8 ± 7.1 mg/dL
- Blood sugar level ([6]; 50 mg/kg p.o. 30 min before glucose 1 g/kg, 60 min.): 99.0 ± 14.0 mg/dL
- Blood sugar level ([6]; 50 mg/kg p.o. 30 min before glucose 1 g/kg, 120 min.): 78.4 ± 6.4 mg/dL
- Blood sugar level ([6]; 50 mg/kg p.o. 30 min before glucose 1 g/kg, 180 min.): 58.4 ± 6.0 mg/dL
- Blood sugar level ([6]; 100 mg/kg p.o. 30 min before glucose 1 g/kg, 20 min.): 89.0 ± 2.9 mg/dL
- Blood sugar level ([6]; 100 mg/kg p.o. 30 min before glucose 1 g/kg, 40 min.): 112.6 ± 5.0 mg/dL
- Blood sugar level ([6]; 100 mg/kg p.o. 30 min before glucose 1 g/kg, 60 min.): 97.6 ± 0.9 mg/dL
- Blood sugar level ([6]; 100 mg/kg p.o. 30 min before glucose 1 g/kg, 120 min.): 73.1 ± 2.5 mg/dL
- Blood sugar level ([6]; 100 mg/kg p.o. 30 min before glucose 1 g/kg, 180 min.): 52.1 ± 1.9 mg/dL
- Blood sugar level ([6]; 200 mg/kg p.o. 30 min before glucose 1 g/kg, 20 min.): 83.0 ± 4.1 mg/dL
- Blood sugar level ([6]; 200 mg/kg p.o. 30 min before glucose 1 g/kg, 40 min.): 95.2 ± 3.6 mg/dL
- Blood sugar level ([6]; 200 mg/kg p.o. 30 min before glucose 1 g/kg, 60 min.): 84.4 ± 2.8 mg/dL
- Blood sugar level ([6]; 200 mg/kg p.o. 30 min before glucose 1 g/kg, 120 min.): 66.2 ± 3.3 mg/dL
- Blood sugar level ([6]; 200 mg/kg p.o. 30 min before glucose 1 g/kg, 180 min.): 53.9 ± 2.1 mg/dL
- Elevation of blood sugar level after glucose loading ([6]; varying oral doses 30 minutes before glucose 1 g/kg): suppressed elevation of blood sugar level
- Glucose (glucose production from isomaltose) ([7]; inhibitor 5 mM): 5.009 ± 0.387 mg/mg protein
- Glucose (glucose production from isomaltose) ([7]; inhibitor 10 mM): 4.150 ± 0.351 mg/mg protein
- Glucose (glucose production from isomaltose) ([7]; inhibitor 30 mM): 3.473 ± 0.520 mg/mg protein
- Glucose (glucose production from isomaltose) ([7]; inhibitor 50 mM): 3.158 ± 0.206 mg/mg protein
- Glucose (glucose production from maltose) ([7]; inhibitor 5 mM): 17.956 ± 0.423 mg/mg protein
- Glucose (glucose production from maltose) ([7]; inhibitor 10 mM): 14.810 ± 0.956 mg/mg protein
- Glucose (glucose production from maltose) ([7]; inhibitor 30 mM): 10.963 ± 0.399 mg/mg protein
- Glucose (glucose production from maltose) ([7]; inhibitor 50 mM): 5.353 ± 0.017 mg/mg protein
- Glucose (glucose production from sucrose) ([7]; inhibitor 5 mM): 4.078 ± 0.073 mg/mg protein
- Glucose (glucose production from sucrose) ([7]; inhibitor 10 mM): 1.682 ± 0.097 mg/mg protein
- Glucose (glucose production from sucrose) ([7]; inhibitor 30 mM): 0.726 ± 0.157 mg/mg protein
- Glucose (glucose production from sucrose) ([7]; inhibitor 50 mM): 0.436 ± 0.036 mg/mg protein
- α-Glucosidase activity, all substrates ([7]; sucrose, starch, maltose, isomaltose, concentration higher than 5 mM): inhibited α-glucosidase activity in the reaction with all substrates
